According to patent US20090325964A1, “Piperazine Metabotropic Glutamate Receptor 5 (MGLUR5) Negative Allosteric Modulators For Anxiety/Depression” (Wyeth, priority 2008, published 2009):

Target: T1, rat mGluR5 receptor (Rattus norvegicus, UniProt P31424)
T1 construct: expressed in transfected cells; host or cells: HEK-293
Assay: [3H]-MPEP displacement binding assay, HEK-293 cell membranes expressing rat mGluR5
Settings: [3H]-MPEP displacement, rat mGluR5; for Ki: read-out: Median Ki; for IC50: no Ki given, read-out: IC50 (printed in the Median Ki column instead of a Ki)
Procedure, shortened: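 Membranes from HEK-293 cells expressing rat mGluR5 (12-25 μg protein), incubated 60 min at room temperature with 4 nM [3H]-MPEP in 50 mM Tris pH 7.5, then filtered. Nonspecific binding defined with 10 μM MPEP.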

T1 sequence (P31424 21-1203): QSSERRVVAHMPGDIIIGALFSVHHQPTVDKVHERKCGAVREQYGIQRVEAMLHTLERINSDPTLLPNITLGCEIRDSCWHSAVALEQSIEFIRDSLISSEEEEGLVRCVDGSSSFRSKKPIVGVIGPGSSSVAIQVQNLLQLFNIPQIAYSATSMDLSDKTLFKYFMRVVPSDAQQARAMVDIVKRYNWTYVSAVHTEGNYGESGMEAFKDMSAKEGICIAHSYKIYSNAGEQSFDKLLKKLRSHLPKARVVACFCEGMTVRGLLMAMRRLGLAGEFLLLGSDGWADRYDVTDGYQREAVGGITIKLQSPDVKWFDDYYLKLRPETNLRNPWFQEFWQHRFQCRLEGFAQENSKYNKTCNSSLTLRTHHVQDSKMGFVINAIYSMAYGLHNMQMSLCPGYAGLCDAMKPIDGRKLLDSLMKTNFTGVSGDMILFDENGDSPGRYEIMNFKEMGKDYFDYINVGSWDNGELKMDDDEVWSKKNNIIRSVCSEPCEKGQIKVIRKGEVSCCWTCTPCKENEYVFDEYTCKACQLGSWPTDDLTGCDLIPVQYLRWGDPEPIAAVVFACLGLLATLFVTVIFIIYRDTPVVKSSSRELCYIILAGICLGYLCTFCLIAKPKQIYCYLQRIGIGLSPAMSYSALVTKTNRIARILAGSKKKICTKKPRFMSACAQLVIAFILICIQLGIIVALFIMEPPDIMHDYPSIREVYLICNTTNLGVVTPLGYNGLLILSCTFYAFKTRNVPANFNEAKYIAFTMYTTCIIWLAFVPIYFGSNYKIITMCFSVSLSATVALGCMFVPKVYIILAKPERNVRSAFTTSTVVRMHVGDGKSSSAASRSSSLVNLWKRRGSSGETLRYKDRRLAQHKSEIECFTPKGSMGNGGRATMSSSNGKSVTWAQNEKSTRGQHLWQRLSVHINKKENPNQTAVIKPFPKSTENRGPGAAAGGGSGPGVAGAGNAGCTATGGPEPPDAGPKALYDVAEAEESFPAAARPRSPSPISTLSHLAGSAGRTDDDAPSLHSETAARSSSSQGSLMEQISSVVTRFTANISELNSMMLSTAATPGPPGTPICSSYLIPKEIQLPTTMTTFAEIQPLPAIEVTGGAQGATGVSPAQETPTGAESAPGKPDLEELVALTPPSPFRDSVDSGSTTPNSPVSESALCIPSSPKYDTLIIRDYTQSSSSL

| Structure (SMILES) | Ki [nM] | IC50 [nM] |
| --- | --- | --- |
| COc1ccc(C(=O)N2CCN(c3cc4ccc(Br)cc4cn3)CC2)cc1C#Cc1ccccn1 [Compound 261, 7-bromo-3-{4-[4-methoxy-3-(pyridin-2-ylethynyl)benzoyl]piperazin-1-yl}isoquinoline] | 1380 |  |
| COc1ccc(C(=O)N2CCN(C(=O)c3ccccc3OC)CC2)cc1C#Cc1ccccn1 [Compound 263, 1-(2-methoxybenzoyl)-4-[4-methoxy-3-(pyridin-2-ylethynyl)benzoyl]piperazine] | 169 |  |
| COc1cccc(C(=O)N2CCN(C(=O)c3ccc(OC)c(C#Cc4ccccn4)c3)CC2)c1 [Compound 264, 1-(3-methoxybenzoyl)-4-[4-methoxy-3-(pyridin-2-ylethynyl)benzoyl]piperazine] | 106 |  |
| COc1ccc(C(=O)N2CCN(S(=O)(=O)c3ccc(Br)s3)CC2)cc1C#Cc1ccccn1 [Compound 269, 1-[(5-bromo-2-thienyl)sulfonyl]-4-[4-methoxy-3-(pyridin-2-ylethynyl)benzoyl]piperazine] | 49 |  |
| COc1ccc(C(=O)N2CCN(S(=O)(=O)c3c(C)noc3C)CC2)cc1C#Cc1ccccn1 [Compound 270, 1-[(3,5-dimethylisoxazol-4-yl)sulfonyl]-4-[4-methoxy-3-(pyridin-2-ylethynyl)benzoyl]piperazine] | 1540 |  |
| COc1ccc(C(=O)N2CCN(c3cc(Cl)cc(Cl)c3)CC2)cc1C#Cc1ccccn1 [Compound 271, 1-(3,5-dichlorophenyl)-4-[4-methoxy-3-(pyridin-2-ylethynyl)benzoyl]piperazine] | 18 |  |
| COc1ccc(C(=O)N2CCN(S(=O)(=O)c3ccc(-n4cnnn4)c(OC)c3)CC2)cc1C#Cc1ccccn1 [Compound 272, 1-[4-methoxy-3-(pyridin-2-ylethynyl)benzoyl]-4-{[3-methoxy-4-(1H-tetrazol-1-yl)phenyl]sulfonyl}piperazine] |  | > 10000 |
| COc1ccc(C(=O)N2CCN(S(=O)(=O)c3cccc4c(N(C)C)cccc34)CC2)cc1C#Cc1ccccn1 [Compound 273, 5-({4-[4-methoxy-3-(pyridin-2-ylethynyl)benzoyl]piperazin-1-yl}sulfonyl)-N,N-dimethylnaphthalen-1-amine] | 1740 |  |
| COc1ccc(C(=O)N2CCN(c3nnc([N+](=O)[O-])s3)CC2)cc1C#Cc1ccccn1 [Compound 276, 1-[4-methoxy-3-(pyridin-2-ylethynyl)benzoyl]-4-(5-nitro-1,3,4-thiadiazol-2-yl)piperazine] | 139 |  |
| COc1ccc(C(=O)N2CCN(Cc3c(Cl)cccc3Cl)CC2)cc1C#Cc1ccccn1 [Compound 277, 1-(2,6-dichlorobenzyl)-4-[4-methoxy-3-(pyridin-2-ylethynyl)benzoyl]piperazine] | 272 |  |
| COc1ccc(C(=O)N2CCN(S(=O)(=O)c3ccccc3Cl)CC2)cc1C#Cc1ccccn1 [Compound 278, 1-[(2-chlorophenyl)sulfonyl]-4-[4-methoxy-3-(pyridin-2-ylethynyl)benzoyl]piperazine] | 876 |  |
| COc1ccc(C(=O)N2CCN(S(=O)(=O)c3cccc(Cl)c3)CC2)cc1C#Cc1ccccn1 [Compound 279, 1-[(3-chlorophenyl)sulfonyl]-4-[4-methoxy-3-(pyridin-2-ylethynyl)benzoyl]piperazine] | 832 |  |
| COc1ccc(C(=O)N2CCN(c3nc(-c4ccccc4)ns3)CC2)cc1C#Cc1ccccn1 [Compound 281, 1-[4-methoxy-3-(pyridin-2-ylethynyl)benzoyl]-4-(3-phenyl-1,2,4-thiadiazol-5-yl)piperazine] | 197 |  |
| COc1ccc(C(=O)N2CCN(c3nc4ccc([N+](=O)[O-])cc4s3)CC2)cc1C#Cc1ccccn1 [Compound 282, 2-{4-[4-methoxy-3-(pyridin-2-ylethynyl)benzoyl]piperazin-1-yl}-6-nitro-1,3-benzothiazole] |  | > 10000 |
| COc1ccc(C(=O)N2CCN(c3nnc(-c4ncc([N+](=O)[O-])n4C)s3)CC2)cc1C#Cc1ccccn1 [Compound 283, 1-[4-methoxy-3-(pyridin-2-ylethynyl)benzoyl]-4-[5-(1-methyl-5-nitro-1H-imidazol-2-yl)-1,3,4-thiadiazol-2-yl]piperazine] | 2310 |  |
| COc1ccc(C(=O)N2CCN(S(=O)(=O)c3ccc(-n4cnnn4)cc3)CC2)cc1C#Cc1ccccn1 [Compound 284, 1-[4-methoxy-3-(pyridin-2-ylethynyl)benzoyl]-4-{[4-(1H-tetrazol-1-yl)phenyl]sulfonyl}piperazine] | 376 |  |
| COc1ccc(C(=O)N2CCN(Cc3ccc(Cl)c(Cl)c3)CC2)cc1C#Cc1ccccn1 [Compound 288, 1-(3,4-dichlorobenzyl)-4-[4-methoxy-3-(pyridin-2-ylethynyl)benzoyl]piperazine] | 170 |  |
| COc1ccc(C(=O)N2CCN(Cc3c(F)cccc3Cl)CC2)cc1C#Cc1ccccn1 [Compound 289, 1-(2-chloro-6-fluorobenzyl)-4-[4-methoxy-3-(pyridin-2-ylethynyl)benzoyl]piperazine] | 269 |  |
| COc1ccc(C(=O)N2CCN(c3cc4ccccc4s3)CC2)cc1C#Cc1ccccn1 [Compound 290, 1-(1-benzothiophen-2-yl)-4-[4-methoxy-3-(pyridin-2-ylethynyl)benzoyl]piperazine] |  | > 10000 |

| Structure (SMILES) | Ki [nM] | IC50 [nM] |
| --- | --- | --- |
| COc1ccc(C(=O)N2CCN(c3nnc(-c4ccccc4)[nH]3)CC2)cc1C#Cc1ccccn1 [Compound 291, 1-[4-methoxy-3-(pyridin-2-ylethynyl)benzoyl]-4-(5-phenyl-4H-1,2,4-triazol-3-yl)piperazine] | 199 |  |
| COc1ccc(C(=O)N2CCN(c3cc(Cl)nc(SC)n3)CC2)cc1C#Cc1ccccn1 [Compound 294, 4-chloro-6-{4-[4-methoxy-3-(pyridin-2-ylethynyl)benzoyl]piperazin-1-yl}-2-(methylthio)pyrimidine] | 99 |  |
| COc1ccc(C(=O)N2CCN(c3nc(Cl)ncc3F)CC2)cc1C#Cc1ccccn1 [Compound 295, 2-chloro-5-fluoro-4-{4-[4-methoxy-3-(pyridin-2-ylethynyl)benzoyl]piperazin-1-yl}pyrimidine] | 102 |  |
| COc1ccc(C(=O)N2CCN(c3cc(Cl)nc(C)n3)CC2)cc1C#Cc1ccccn1 [Compound 297, 4-chloro-6-{4-[4-methoxy-3-(pyridin-2-ylethynyl)benzoyl]piperazin-1-yl}-2-methylpyrimidine] | 159 |  |
| COc1nc(OC)nc(N2CCN(C(=O)c3ccc(OC)c(C#Cc4ccccn4)c3)CC2)n1 [Compound 305, 2,4-dimethoxy-6-{4-[4-methoxy-3-(pyridin-2-ylethynyl)benzoyl]piperazin-1-yl}-1,3,5-triazine] | 229 |  |
| Cc1ccc(C(=O)N2CCN(c3ncc(Cl)cc3Cl)CC2)cc1C#Cc1ccccn1 [Compound 310, 1-(3,5-dichloropyridin-2-yl)-4-[4-methyl-3-(pyridin-2-ylethynyl)benzoyl]piperazine] | 745 |  |
| Cc1ccc(C(=O)N2CCN(c3ncccc3Cl)CC2)cc1C#Cc1ccccn1 [Compound 311, 1-(3-chloropyridin-2-yl)-4-[4-methyl-3-(pyridin-2-ylethynyl)benzoyl]piperazine] | 140 |  |
| O=C(c1ccc(F)c(C#Cc2ccccn2)c1)N1CCN(c2ncccn2)CC1 [Compound 312, 2-{4-[4-Fluoro-3-(pyridin-2-ylethynyl)benzoyl]piperazin-1-yl}pyrimidine] | 84 |  |
| O=C(c1ccc(F)c(C#Cc2ccccn2)c1)N1CCN(c2ncc(Cl)cc2Cl)CC1 [Compound 314, 1-(3,5-dichloropyridin-2-yl)-4-[4-fluoro-3-(pyridin-2-ylethynyl)benzoyl]piperazine] | 1840 |  |
| O=C(c1ccc(F)c(C#Cc2ccccn2)c1)N1CCN(c2ncccc2Cl)CC1 [Compound 315, 1-(3-chloropyridin-2-yl)-4-[4-fluoro-3-(pyridin-2-ylethynyl)benzoyl]piperazine] | 270 |  |
| CCOc1ccc(C(=O)N2CCN(c3ncc(Cl)cc3Cl)CC2)cc1C#Cc1ccccn1 [Compound 319, 1-(3,5-dichloropyridin-2-yl)-4-[4-ethoxy-3-(pyridin-2-ylethynyl)benzoyl]piperazine] | 652 |  |
| CCOc1ccc(C(=O)N2CCN(c3ncccc3Cl)CC2)cc1C#Cc1ccccn1 [Compound 321, 1-(3-chloropyridin-2-yl)-4-[4-ethoxy-3-(pyridin-2-ylethynyl)benzoyl]piperazine] | 149 |  |
| O=C(c1ccc(OCC2CC2)c(C#Cc2ccccn2)c1)N1CCN(c2ccccn2)CC1 [Compound 323, 1-{[4-(cyclopropylmethoxy)-3-(pyridin-2-ylethynyl)phenyl]carbonyl}-4-pyridin-2-ylpiperazine] | 198 |  |
| O=C(c1ccc(OCC2CC2)c(C#Cc2ccccn2)c1)N1CCN(c2ncccn2)CC1 [Compound 325, 2-(4-{[4-(cyclopropylmethoxy)-3-(pyridin-2-ylethynyl)phenyl]carbonyl}piperazin-1-yl)pyrimidine] | 1340 |  |
| COc1ccc(C(=O)N2CCN(c3ccccn3)C(=O)C2)cc1C#Cc1ccccn1 [Compound 330, 4-{[4-methoxy-3-(pyridin-2-ylethynyl)phenyl]carbonyl}-1-pyridin-2-ylpiperazin-2-one] | 122 |  |
| O=C(c1ccc(OC(F)(F)F)c(C#Cc2ccccn2)c1)N1CCN(c2ncccc2Cl)CC1 [Compound 336, 1-(3-chloropyridin-2-yl)-4-[3-(pyridin-2-ylethynyl)-4-(trifluoromethoxy)benzoyl]piperazine] | 1070 |  |
| O=C(c1ccc(OC(F)(F)F)c(C#Cc2ccccn2)c1)N1CCN(c2cccc(C(F)(F)F)c2)CC1 [Compound 337, 1-[3-(pyridin-2-ylethynyl)-4-(trifluoromethoxy)benzoyl]-4-[3-(trifluoromethyl)phenyl]piperazine] | 1570 |  |
| COc1nc(N2CCN(C(=O)c3ccc(OC(F)(F)F)c(C#Cc4ccccn4)c3)CC2)ncc1Br [Compound 339, 5-bromo-4-methoxy-2-{4-[3-(pyridin-2-ylethynyl)-4-(trifluoromethoxy)benzoyl]piperazin-1-yl}pyrimidine] | 702 |  |
